Reference: patent US20150105252A1, “SUBSTITUTED PYRAZOLES AS HERBICIDES” (E I DU PONT DE NEMOURS AND COMPANY, priority 2013, published 2015)

Key:
pigweed [1] = assay: Test A postemergence; format: in vivo, Amaranthus retroflexus
Procedure, shortened: (§1)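 Visual injury rating, 0–100 (0 no effect, 100 complete control), vs untreated controls ~10 days after treatment in greenhouse. Pre: directed soil spray on seeded loam/sand. Post: 2–10 cm plants, 1–2 leaf stage. Formulation: non-phytotoxic solvent mix + surfactant.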

corn [2] = assay: Test A postemergence; format: in vivo, Zea mays
Procedure, shortened: as §1

blackgrass = assay: Test C preemergence; format: in vivo, Alopecurus myosuroides
Excerpt: (§2) Seeds of plant species selected from blackgrass (Alopecurus myosuroides), ryegrass, Italian (Italian ryegrass, Lolium multiflorum), wheat (winter wheat, Triticum aestivum), galium (catchweed bedstraw, Galium aparine), corn (Zea mays), crabgrass, large (large crabgrass, Digitaria sanguinalis), foxtail, giant (giant foxtail, Setaria faberii), johnsongrass (Sorghum halepense), lambsquarters (Chenopodium album), morningglory (Ipomoea coccinea), nutsedge, yellow (yellow nutsedge, Cyperus esculentus), pigweed (redroot pigweed, Amaranthus retroflexus), ragweed (common ragweed, Ambrosia elation), soybean (Glycine max), barnyardgrass (Echinochloa crus-galli), oilseed rape (Brassica napus), waterhemp (common waterhemp, Amaranthus rudis), oat, wild (wild oat, Avena fatua), kochia (Kochia scoparia), Surinam grass (Brachiaria decumbens), foxtail, green (green foxtail, Setaria viridis), goosegrass (Eleusine indica), bromegrass, downy (downy bromegrass, Bromus tectorum), nightshade (eastern black nightshade, Solanum ptycanthum), cocklebur (common cocklebur, Xanthium strumarium), cupgrass, woolly (woolly cupgrass, Eriochloa villosa), bermudagrass (Cynodon dactylon), sunflower, (common oilseed sunflower, Helianthus annuus), Russian thistle (Salsola kali), and velvetleaf (Abutilon theophrasti) were planted into a blend of loam soil and sand and treated preemergence with test chemicals formulated in a non-phytotoxic solvent mixture which included a surfactant.
(§3) At the same time, plants selected from these crop and weed species and also chickweed (common chickweed, Stellaria media), canarygrass (littleseed canarygrass, Phalaris minor), and deadnettle (henbit deadnettle, Lamium amplexicaule), were planted in pots containing Redi-Earth® planting medium (Scotts Company, 14111 Scottslawn Road, Marysville, Ohio 43041) comprising spaghnum peat moss, vermiculite, wetting agent and starter nutrients and treated with postemergence applications of test chemicals formulated in the same manner. Plants ranged in height from 2 to 18 cm (1- to 4-leaf stage) for postemergence treatments. Treated plants and controls were maintained in a greenhouse for 13 to 15 days, after which time all species were compared to controls and visually evaluated. Plant response ratings, summarized in Table C, are based on a scale of 0 to 100 where 0 is no effect and 100 is complete control. A dash (-) response means no test result.

foxtail, giant = assay: Test C preemergence; format: in vivo, Setaria faberii
Excerpt: as §2, §3

wheat = assay: Test A postemergence; format: in vivo, Triticum aestivum
Procedure, shortened: as §1

crabgrass, large = assay: Test A preemergence; format: in vivo, Digitaria sanguinalis; settings: preemergence
Procedure, shortened: as §1

waterhemp = assay: Test C preemergence; format: in vivo, Amaranthus rudis
Excerpt: as §2, §3

corn [3] = assay: Test C preemergence; format: in vivo, Zea mays
Excerpt: as §2, §3

ducksalad = assay: Test B flood; format: in vivo, Heteranthera limosa; settings: 250 g ai/ha, visual rating on 0 to 100 scale (0 no effect, 100 complete control), 13 to 15 days
Procedure, shortened: (§4)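 Flooded-pot test: compound dosed into 3 cm of standing water above soil when plants had two leaves. Visual control ratings (0–100) versus untreated plants after 13–15 d.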

pigweed [4] = assay: Test A preemergence; format: in vivo, Amaranthus retroflexus; settings: preemergence
Procedure, shortened: as §1

ryegrass, Italian = assay: Test C preemergence; format: in vivo, Lolium multiflorum
Excerpt: as §2, §3

rice = assay: Test B flood; format: in vivo, Oryza sativa; settings: 250 g ai/ha, visual rating on 0 to 100 scale (0 no effect, 100 complete control), 13 to 15 days
Procedure, shortened: as §4

morningglory [5] = assay: Test A postemergence; format: in vivo, Ipomoea spp.
Procedure, shortened: as §1

morningglory [6] = assay: Test A preemergence; format: in vivo, Ipomoea spp.; settings: preemergence
Procedure, shortened: as §1

[7] = Postemergence, 500 g ai/ha, visual rating after approx. 10 days, 0 to 100 scale (0 no effect, 100 complete control)
[8] = postemergence, 125 g ai/ha, about 10 days, visual rating on 0 to 100 scale (0 no effect, 100 complete control)
[9] = Preemergence, 16 g ai/ha, scale 0 to 100
[10] = preemergence, 31 g ai/ha, visual rating, scale 0 to 100 (0 no effect, 100 complete control), 13 to 15 days
[11] = preemergence, 62 g ai/ha, 13 to 15 days, scale 0 to 100, 0 = no effect, 100 = complete control
[12] = preemergence, 125 g ai/ha, scale 0 to 100, 0 is no effect, 100 is complete control
[13] = 125 g ai/ha, visual injury, 0 to 100 scale, approx. 10 days
[14] = 500 g ai/ha, visual injury after approx. 10 days, 0 to 100 scale (0 no effect, 100 complete control)
[15] = Postemergence, 500 g ai/ha, 0 to 100 scale (0 no effect, 100 complete control)
[16] = Postemergence, 125 g ai/ha, 0 to 100 scale, 0 no effect, 100 complete control

SMILES	Pigweed plant response rating (pigweed [1]; [7])	Pigweed plant response rating (pigweed [1]; [8])	Corn plant response rating (corn [2]; [7])	Corn plant response rating (corn [2]; [8])	Blackgrass plant response rating (blackgrass; [10])	Plant response rating, Blackgrass (blackgrass; [11])	Blackgrass plant response rating (blackgrass; [12])	Foxtail, Giant plant response rating (foxtail, giant; [10])	Plant response rating, Foxtail, Giant (foxtail, giant; [11])	Foxtail, Giant plant response rating (foxtail, giant; [12])	Wheat plant response rating (wheat; [8])	Crabgrass, Large plant response rating (crabgrass, large; [13])	Crabgrass, Large plant response rating (crabgrass, large; [14])	Plant response rating, Ducksalad (ducksalad)	Pigweed plant response rating (pigweed [4]; [13])	Pigweed plant response rating (pigweed [4]; [14])	Plant response rating, Rice (rice)	Morningglory plant response rating (morningglory [5]; [8])	Morningglory plant response rating (morningglory [6]; [13])	Morningglory plant response rating (morningglory [6]; [14])	further results
CCc1cc(C(=O)NOC(C)C)nn1Cc1ccnc(C(F)(F)F)c1 [Compound 101]	90	60	100	90	75	90	95	80	98	100	80	100	100	70	100	100	0	100	80	100	Plant response rating, Blackgrass (blackgrass; [9]): 30; Plant response rating, Foxtail, Giant (foxtail, giant; [9]): 15; Wheat plant response rating (wheat; [7]): 100; Plant response rating, Waterhemp (waterhemp; [9]): 85; Waterhemp plant response rating (waterhemp; [10]): 95; Plant response rating, Waterhemp (waterhemp; [11]): 100; Waterhemp plant response rating (waterhemp; [12]): 100; Plant response rating, Corn (corn [3]; [9]): 0; Corn plant response rating (corn [3]; [10]): 0; Plant response rating, Corn (corn [3]; [11]): 95; Corn plant response rating (corn [3]; [12]): 100; Plant response rating, Ryegrass, Italian (ryegrass, Italian; [9]): 0; Ryegrass, Italian plant response rating (ryegrass, Italian; [10]): 30; Plant response rating, Ryegrass, Italian (ryegrass, Italian; [11]): 60; Ryegrass, Italian plant response rating (ryegrass, Italian; [12]): 100; Morningglory plant response rating (morningglory [5]; [7]): 100
CCc1cc(C(=O)NC(C)C)nn1Cc1ccnc(C(F)(F)F)c1 [Compound 103]	90	90	90	80	100	100	100	100	100	100	80	100	100	90	100	100	50	90	100	100	Plant response rating (scale of 0 to 100), Blackgrass (blackgrass; Preemergence, 250 g ai/ha): 100; Plant response rating (scale of 0 to 100), Foxtail, Giant (foxtail, giant; Preemergence, 250 g ai/ha): 100; Wheat plant response rating (wheat; [7]): 90; Plant response rating (scale of 0 to 100), Waterhemp (waterhemp; Preemergence, 250 g ai/ha): 100; Waterhemp plant response rating (waterhemp; [10]): 100; Plant response rating, Waterhemp (waterhemp; [11]): 100; Waterhemp plant response rating (waterhemp; [12]): 100; Plant response rating (scale of 0 to 100), Corn (corn [3]; Preemergence, 250 g ai/ha): 100; Corn plant response rating (corn [3]; [10]): 75; Plant response rating, Corn (corn [3]; [11]): 100; Corn plant response rating (corn [3]; [12]): 100; Plant response rating (scale of 0 to 100), Ryegrass, Italian (ryegrass, Italian; Preemergence, 250 g ai/ha): 98; Ryegrass, Italian plant response rating (ryegrass, Italian; [10]): 75; Plant response rating, Ryegrass, Italian (ryegrass, Italian; [11]): 95; Ryegrass, Italian plant response rating (ryegrass, Italian; [12]): 95; Morningglory plant response rating (morningglory [5]; [7]): 100
CCCc1cc(C(=O)NCC(F)(F)F)nn1Cc1cc(C(F)(F)F)nn1C [Compound 138]	–	100	–	80	–	–	–	–	–	–	80	100	100	80	100	100	50	80	90	100	Pigweed plant response rating (pigweed [1]; [15]): 100; Corn plant response rating (corn [2]; [15]): 90; Wheat plant response rating (wheat; [15]): 90; Morningglory plant response rating (morningglory [5]; [15]): 100
CCc1cc(C(=O)NCC(F)(F)F)nn1Cc1cc(OC(F)F)nn1C [Compound 206]	–	–	–	30	–	–	–	–	–	–	–	–	–	0	–	–	0	–	–	–	Pigweed plant response rating (pigweed [1]; [16]): 80; Pigweed plant response rating (pigweed [1]; [15]): 100; Corn plant response rating (corn [2]; [15]): 60; Wheat plant response rating (wheat; [16]): 10; Wheat plant response rating (wheat; [15]): 20; Pigweed plant response rating (0 to 100 scale) (pigweed [4]; 125 g ai/ha, visual injury approx. 10 days after treatment): 90
